Consider one molecule from US20200032249A1, “LABELING, ISOLATION, & ANALYSIS OF RNA FROM RARE CELL POPULATIONS” (priority 2017, published 2020).

Where two headings read alike, the source gives them in different places.

The series relates to CD/UPRT-expressing cells. The series is classed as cell-based. The note with it: human. The protocol:
FIG. 2a-b. Flura-tagging has minimal cytotoxicity. FIG. 2a—Effect of Flura-tagging on stress granule formation. MDA231 cells were treated with 5-FC for the indicated times, and the formation of stress granules was detected by G3BP immunostaining. Control cells were either treated with water or sodium arsenite (Arsenite) for one hour. Arrows indicate stress granules (n=3). Scale bar=20 μM. FIG. 2b—Effect of Flura-tagging on transcription. RNA expression in control cells was compared to CD/UPRT-expressing cells treated with the indicated concentrations of 5-FC for 4 h or 12 h. Each dot represents a gene, with the outer/lighter gray dots indicating genes showing more than 2-fold differential expression, as determined by DESeq2 (n=2). The dotted line represents the four-fold cutoff mark.
For a more sensitive analysis of potential alterations caused by Flura-tagging, we investigated the transcriptional changes occurring under these experimental conditions. We compared the transcriptome of cells treated with two different concentrations of 5-FC (50 μM and 250 μM) at two different time points (4 h and 12 h) with that of control cells, using RNA-seq. […] This number increased to 190, 1325 and 1965 genes in cells treated with 250 μM 5-FC for 4 h, 50 μM 5-FC for 12 h, and 250 μM 5-FC for 12 h, respectively (FIG. 2b). Moreover, a majority of these differences in gene expression were within a four-fold range (FIG. 2b).
RNA-seq library preparation. Total RNA was purified using Qiagen RNeasy Mini Kit. Quality and quantity was checked by Agilent […]. 10 ng RNA per sample was used for library construction with Sample Prep Kit v2 (Illumina) according to manufacturer's instructions. Libraries were multiplex sequenced libraries on a Hiseq2500 platform, and more than 25 million raw paired-end reads were generated for each sample.
Reads were quality checked using FastQC v0.11.5 and mapped to a human (hg19) or hybrid human-mouse (hg19-mm10) genome with STAR2.5.2b (22) using standard settings for paired reads. Uniquely mapped reads were assigned to annotated genes with HTSeq v0.6.1p1 (23) with default settings. Read counts were normalized by library size, and differential gene expression analysis based on a negative binomial distribution was performed using DESeq2 v3.4 (24). In general, thresholds for differential expression were set as follows: adjusted p-value<0.05, fold change >2.0 or <0.5, and average normalized read count >10. Genes were considered detectable in the immunoprecipitation samples with a normalized read count >100. Gene set enrichment analysis was performed using GSVA v3.4 (25) and previously curated gene sets (26): HALLMARK_TGF_BETA_SIGNALING, HALLMARK_HEDGEHOG_SIGNALING, HALLMARK_WNT_BETA_CATENIN_SIGNALING, HALLMARK_PI3_K_AKT_MTOR_SIGNALING, HALLMARK_NOTCH_SIGNALING, HALLMARK_KRAS_SIGNALING_UP, CORDENONSI_YAP_CONSERVED_SIGNATURE, HALLMARK_IL6_JAK_STAT3_SIGNALING.

Turning to `Nc1nc(=O)[nH]cc1F` [5-FC, 5-fluorocytosine], the “genes with more than 4-fold difference” value is listed as 10 genes (4 h, 50 μM); 15 genes (4 h, 250 μM); 102 genes (12 h, 50 μM); 182 genes (12 h, 250 μM). The “genes with statistically significant differences in expression vs control cells” value is 113 genes (4 h, 50 μM); 190 genes (4 h, 250 μM); 1325 genes (12 h, 50 μM); 1965 genes (12 h, 250 μM).
